Measured values from patent publication US6441206B1, “Use of organic acid esters in dietary fat” (Raisio Benecol Ltd., priority 1997, dated 2002).

Tests used:
[1] = test system: cholesterol absorption; conditions: infusion test; cited from earlier work
[2] = test system: triglyceride content of liver; conditions: cited from earlier work
[3] = test system: total serum cholesterol; conditions: daily supply of plant sterol 2-3 g; cited from earlier work
[4] = soluble matter in spirit vinegar (10 weight-% acetic acid); assay type: physicochemical; conditions: spirit vinegar with 10 weight-% acetic acid; 12 hours standing without stirring
Text: 6.80 g β-sitosterol citrate from example 12 90.7 g Rajamäki Spirit Vinegar (Primalco Oy, Nurmijärvi), containing 10 weight-% acetic acid.

[5] = test system: cholesterol absorption; conditions: cited from earlier work; for cholesterol absorption lowering effect: molar quantities of the fatty acid esters
[6] = test system: triglyceride content of the blood serum; conditions: rats; cited from earlier work
[7] = test system: white male mice; conditions: 3.5 g dose per 1 kg live weight; cited from earlier work
[8] = test system: blood cholesterol; conditions: in vivo; cited from earlier work
[9] = solubility in alcohol (ethanol) and lipids; assay type: physicochemical
Text: According to one preferred embodiment of the invention, β-sitosterols are esterified and sterol esters are hydrogenated to form stanols. […] This achieves the significant advantage that hydrogenation can be carried out at room temperature.
Di-β-sitosteryl citrate is formed in a heterogeneous reaction between citric acid and β-sitosterol, at the same reaction conditions as described in the previous section. The compound is separated from the sterol monocitrate on the basis of solubility, using ethanol extraction. The method is based on the fact that the solubility of sterol monocitrate in ethyl alcohol is ten times that of di-β-sitosteryl citrate.
A minimum of 7 ml of water was azeotropically distilled from the reaction mixture over 7-8 hours; as the conversion approached theoretical, upon cooling no lactic acid or plant sterols were crystallized from the reaction mixture. The cooled reaction mixture was a yellowish, viscose liquid. The toluene was removed from the reaction mixture in a vacuum (29 mmHg) at a temperature of 80-90° C. […] As a whole, the material obtained was useable and contained very little or no free plant sterols and/or lactic acid.

[10] = thermal resistance of light spread at 45° C.; assay type: physicochemical; conditions: fat component with 5% ester, 45° C. up to 4 hours, mixed after return to room temperature
Experimental: The polarity of the sterol/stanol esters described above is an extremely useful property. It is characteristic of compounds according to the invention, e.g. β-sitosterol dicarboxylic acid hemiesters and citrates that in lipid solutions (e.g. 2.5-5% of the fat component) they promote the mixing of the lipid and the water. […] The prepared light spread also lasted better than the comparative sample when heated to 45° C. for up to 4 hours. By improved thermal resistance is meant that after 2 hours at 45° C., more oil had separated from the comparative sample than from the sterol-containing sample. Over the next 2 hours, the separation of oil from the comparative sample continued. In the sterol-containing spread, however, negative change had ceased.

Molecule: CC[C@H](CC[C@@H](C)[C@H]1CC[C@H]2[C@@H]3CC=C4C[C@@H](O)CC[C@]4(C)[C@H]3CC[C@]12C)C(C)C [β-sitosterol]
- inhibition of cholesterol absorption [1]: 50%
- response in this test ([2]; source material as comparison, which test is meant is not clear): did not give a positive response

Molecule: CC[C@H](CC[C@@H](C)[C@H]1CC[C@H]2[C@@H]3CC[C@H]4C[C@@H](O)CC[C@]4(C)[C@H]3CC[C@]12C)C(C)C [sitostanol]
- total serum cholesterol [3]: decrease in the total serum cholesterol

Molecule: β-sitosterol citrate [Example 12]
- amount of the sterol citrate dissolved [4]: 0.74%

Molecule: CC(=O)O [acetate]
- cholesterol absorption lowering effect [5]: equally as effective

Molecule: CC[C@H](CC[C@@H](C)[C@H]1CC[C@H]2[C@@H]3CC[C@H]4C[C@@H](O)CC[C@]4(C)[C@H]3CC[C@]12C)C(C)C [β-sitostanol]
- inhibition of cholesterol absorption [1]: 83%

Molecule: CC[C@H](CC[C@@H](C)[C@H]1CC[C@H]2[C@@H]3C[C@@H](OC=O)[C@@]4(O)C[C@@H](OC=O)CC[C@]4(C)[C@H]3CC[C@]12C)C(C)C [sitostane-3β-, 5α-, 6β-triol-3,6-diformiate]
- lowering of triglyceride content of the blood serum [6]: moderately lower
- lowering of triglyceride content of liver ([2]; guinea pigs): 54%
- acute toxicity [7]: did not show toxicity

Molecule: oleate
- cholesterol absorption lowering effect [5]: equally as effective

Molecule: soy sterol-2-carbamate glutaric acid K^+—salt
- lowering blood cholesterol concentrations [8]: proved to lower blood cholesterol concentrations

Molecule: decanoate
- cholesterol absorption lowering effect [5]: equally as effective

Molecule: CC[C@H](CC[C@@H](C)[C@H]1CC[C@H]2[C@@H]3CC=C4C[C@@H](OC(=O)C(C)O)CC[C@]4(C)[C@H]3CC[C@]12C)C(C)C (stereo partly drawn) [Example 19, β-sitosterol Lactate]
- solubility in alcohol ([9]; in words): highly soluble in alcohol
- solubility in lipids and ethanol ([9]; reaction product, viscose liquid at 60-100° C.): soluble in lipids and ethanol

Molecule: CCC(CCC(C)C1CCC2C3CC=C4CC(OC(=O)CCC(=O)O)CCC4(C)C3CCC12C)C(C)C (stereo not drawn) [Example 3, β-sitosterol Hydrogen Succinate]
- changes in the sample after heating [10]: almost reversible
- lowering of the cholesterol content of blood ([5]; compared with phytosterol monocarboxyl acid esters): as effectively as the phytosterol monocarboxyl acid esters
